Measurements reported in patent publication US20220142967A1, “Methods and Compositions for the Treatment of Multiple Sclerosis” (SYMBIONYX PHARMACEUTICALS INC, priority 2018, published 2022).
Where a name gives a salt, the structure may show the parent alone.

Tested on: cultured astrocytes
Test: RNA-seq of cultured astrocytes compared with MS patient white matter astrocytes (GSE83670)
Format: cell-based, human
Protocol: Previously, Waller et al. 2016 (J Neuroimmunol 299:139-146) used laser capture microdissection (LCM) to isolate astrocytes from normal appearing white matter in MS patients and CTL subjects (GEO dataset GSE83670; PMID: 27125112).
cDNA sequencing was performed by the University of Michigan sequencing core facility (50 cycle single end Illumina HiSeq 2000). The FASTX-Toolkit was used to filter reads by removing low quality sequences and initial quality assessments were performed using FastQC. Quality-filtered reads were mapped to the human genome (hg38/GRCh38, UCSC) using tophat2 with default settings, except multi-mapping of reads to multiple genome locations was disallowed (settings: -g 1 —no-coverage-search). The hg38/GRCh38 genome is the most recent release available from UCSC. HTSeq was used to tabulate the number of reads mapping to each genome feature and Cufflinks was used to calculate FPKM estimates and associated confidence intervals. RSeQC was used to assess quality of mapping and calculate the percentage of mapped reads. The negative binomial model (edgeR) was used to evaluate differential expression, with read counts normalized using the weighted trimmed mean of M-values method, and dispersions estimated using the Cox-Reid (CR)-adjusted likelihood approach. Differential expression analyses were performed using genes with detectable expression in at least 1 of 4 samples involved in a given comparison. A gene was considered to have detectable expression in a sample if the count per million mapped reads (cpm) estimate was greater than 0.20 and if the lower bound of the FPKM 95% confidence interval was greater than zero.
FIG. 3 presents in scatterplot and histogram format the results of the study on the astrocytes. Scatterplots (A) and (D) compare fold change (FC) estimates in DMF-treated (A) and IDMF-treated (D) astrocytes to LCM-dissected astrocytes in MS patients and healthy controls (CTLs). Each point represents a protein-coding gene and the light colored ellipses outline the 90% of genes closest to the bivariate mean based upon the Mahalanobis distance. The Spearman rank correlation coefficient estimate is shown (upper-left). The proportion of genes within each quadrant is indicated in the upper margin (P<0.05, Fisher's exact test), wherein the quadrants are defined by a vertical and horizontal line through the “1” in each axis with the proportion corresponding, left to right to the upper left, the upper right, the lower right and lower left quadrants, respectively. Gene set overlap is presented in (B), (C), (E) and (F) wherein genes within each set were altered with a P<0.05 threshold. P-values from the test of overlap significance are shown (bottom margin, Fisher's exact test). […]

In the case of `COC(=O)/C=C/C(=O)O[C@H]1CO[C@H]2[C@@H]1OC[C@H]2OC(=O)/C=C/C(=O)OC` [IDMF, isosorbide di-(methyl fumarate)], the “number of genes decreased by IDMF (P<0.05) and increased in MS (P<0.05)” value is reported as 82 genes, the “protein-coding genes increased by IDMF (FC>1.00) but decreased in MS patients (FC<1.00)” value is reported as 35.08% and the “correlation of genome-wide expression responses with those observed in MS patients (Spearman r)” value (cultured astrocytes vs. LCM-dissected MS patient astrocytes) is reported as “negatively correlated”.
